Laboratory results from ChEMBL document CHEMBL1201862, “PubChem BioAssay data set” (2004).
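Values below derive from 48-hour exposures of cells grown in 96-well plates, with endpoints linearly interpolated between the two concentrations bracketing the appropriate inhibition level. GI50: concentration for 50% inhibition of growth.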 Calls of active or inactive are those of the source. No stated cut-off is given here; in the data, active = GI50 up to about 1.1 µM and inactive = higher.

Legend:
Assay in all cases: NCI tumour cell line growth inhibition, 48 h
[1] = test system: OVCAR-4
[2] = test system: COLO 205
[3] = test system: RPMI-8226
[4] = test system: LXFL 529
[5] = test system: ACHN
[6] = test system: SK-MEL-28
[7] = test system: SF-295
[8] = test system: MOLT-4
[9] = test system: HOP-62
[10] = test system: LOX IMVI
[11] = test system: SK-OV-3
[12] = test system: A498
[13] = test system: DMS-273
[14] = test system: UO-31
[15] = test system: SN12C
[16] = test system: SNB-78
[17] = test system: SF-268
[18] = test system: NCI-H460
[19] = test system: HCT-116
[20] = test system: NCI-H226
[21] = test system: DMS-114
[22] = test system: NCI-H23
[23] = test system: EKVX
[24] = test system: UACC-62
[25] = test system: XF498
[26] = test system: KM12
[27] = test system: M14
[28] = test system: M19-MEL
[29] = test system: SW-620
[30] = test system: TK-10
[31] = test system: Malme-3M
[32] = test system: CAKI-1
[33] = test system: HL-60
[34] = test system: HCC 2998
[35] = test system: SF-539
[36] = test system: UACC-257
[37] = test system: SNB-75
[38] = test system: OVCAR-8
[39] = test system: 786-0
[40] = test system: KM-20L2
[41] = test system: RXF 393
[42] = test system: OVCAR-3
[43] = test system: DLD-1
[44] = test system: CCRF-CEM
[45] = test system: U-251
[46] = test system: SK-MEL-5
[47] = test system: HCT-15
[48] = test system: K562
[49] = test system: OVCAR-5
[50] = test system: IGROV-1
[51] = test system: HT-29
[52] = test system: SK-MEL-2
[53] = test system: A549
[54] = test system: HOP-18
[55] = test system: NCI-H522
[56] = test system: HOP-92
[57] = test system: SNB-19
[58] = test system: SR

Question: What does the source list for `CN(CCN1C(=O)c2cc([N+](=O)[O-])cc3cc([N+](=O)[O-])cc(c23)C1=O)CCN1C(=O)c2cc([N+](=O)[O-])cc3cc([N+](=O)[O-])cc(c23)C1=O`?
Answer: GI50 [1]: 0.524 µM (active); GI50 [2]: 0.393 µM (active); GI50 [3]: 0.342 µM (active); GI50 [4]: 0.211 µM (active); GI50 [5]: 0.264 µM (active); GI50 [6]: 0.798 µM (active); GI50 [7]: 0.59 µM (active); GI50 [8]: 0.0485 µM (active); GI50 [9]: 2.65 µM (inactive); GI50 [10]: 0.248 µM (active); GI50 [11]: 2.31 µM (inactive); GI50 [12]: 12.8 µM (inactive); GI50 [13]: 0.391 µM (active); GI50 [14]: 4.8 µM (inactive); GI50 [15]: 0.332 µM (active); GI50 [16]: 0.255 µM (active); GI50 [17]: 0.458 µM (active); GI50 [18]: 0.387 µM (active); GI50 [19]: 0.153 µM (active); GI50 [20]: 0.778 µM (active); GI50 [21]: 0.605 µM (active); GI50 [22]: 1.74 µM (inactive); GI50 [23]: 4.26 µM (inactive); GI50 [24]: 0.811 µM (active); GI50 [25]: 0.211 µM (active); GI50 [26]: 0.681 µM (active); GI50 [27]: 0.652 µM (active); GI50 [28]: 0.369 µM (active); GI50 [29]: 0.0741 µM (active); GI50 [30]: 8.73 µM (inactive); GI50 [31]: 0.815 µM (active); GI50 [32]: 0.322 µM (active); GI50 [33]: 0.234 µM (active); GI50 [34]: 0.491 µM (active); GI50 [35]: 0.399 µM (active); GI50 [36]: 1.21 µM (inactive); GI50 [37]: 0.695 µM (active); GI50 [38]: 0.267 µM (active); GI50 [39]: 0.455 µM (active); GI50 [40]: 1.1 µM (active); GI50 [41]: 0.238 µM (active); GI50 [42]: 0.646 µM (active); GI50 [43]: 0.448 µM (active); GI50 [44]: 0.0524 µM (active); GI50 [45]: 0.375 µM (active); GI50 [46]: 1.21 µM (inactive); GI50 [47]: 0.482 µM; GI50 [48]: 0.23 µM (active); GI50 [49]: 1.69 µM (inactive); GI50 [50]: 0.347 µM (active); GI50 [51]: 0.272 µM (active); GI50 [52]: 0.764 µM (active); GI50 [53]: 0.887 µM (active); GI50 [54]: 10.6 µM (inactive); GI50 [55]: 0.421 µM (active); GI50 [56]: 0.252 µM (active)

Question: Which GI50 [1] does the source give for `Cn1c(=O)c(C#N)c(O)c2cc3ccccc3nc21` here?
Answer: Its GI50 is > 100 µM (inactive).

Question: What about the GI50 [2] of the same compound?
Answer: The GI50 was > 100 µM (inactive).

Question: What about the GI50 [3] of the same compound?
Answer: Its GI50 is > 100 µM (inactive).

Question: What about the GI50 [4] of the same compound?
Answer: Its GI50 is > 100 µM (inactive).

Question: What about the GI50 [5] of the same compound?
Answer: Its GI50 is > 100 µM (inactive).

Question: What about the GI50 [6] of the same compound?
Answer: Its GI50 is > 100 µM (inactive).

Question: And the GI50 [7]?
Answer: The GI50 was > 100 µM (inactive).

Question: What about the GI50 [8] of the same compound?
Answer: The GI50 was > 100 µM (inactive).

Question: What about the GI50 [10] of the same compound?
Answer: Its GI50 is > 100 µM (inactive).

Question: What about the GI50 [11] of the same compound?
Answer: Its GI50 is > 100 µM (inactive).

Question: What about the GI50 [13] of the same compound?
Answer: Its GI50 is > 100 µM (inactive).

Question: And the GI50 [14]?
Answer: The GI50 was > 100 µM (inactive).

Question: What about the GI50 [15] of the same compound?
Answer: Its GI50 is > 100 µM (inactive).

Question: And the GI50 [16]?
Answer: Its GI50 is > 100 µM (inactive).

Question: What about the GI50 [17] of the same compound?
Answer: Its GI50 is > 100 µM (inactive).

Question: And the GI50 [18]?
Answer: Its GI50 is > 100 µM (inactive).

Question: And the GI50 [19]?
Answer: Its GI50 is > 100 µM (inactive).

Question: What about the GI50 [20] of the same compound?
Answer: The GI50 was > 100 µM (inactive).

Question: What about the GI50 [21] of the same compound?
Answer: The GI50 was > 100 µM (inactive).

Question: What about the GI50 [22] of the same compound?
Answer: The GI50 was > 100 µM (inactive).

Question: What about the GI50 [23] of the same compound?
Answer: The GI50 was > 100 µM (inactive).

Question: And the GI50 [25]?
Answer: Its GI50 is > 100 µM (inactive).

Question: And the GI50 [26]?
Answer: The GI50 was > 100 µM (inactive).

Question: What about the GI50 [27] of the same compound?
Answer: Its GI50 is > 100 µM (inactive).

Question: What about the GI50 [28] of the same compound?
Answer: The GI50 was > 100 µM (inactive).

Question: What about the GI50 [29] of the same compound?
Answer: The GI50 was > 100 µM (inactive).

Question: What about the GI50 [30] of the same compound?
Answer: Its GI50 is > 100 µM (inactive).

Question: And the GI50 [31]?
Answer: The GI50 was > 100 µM (inactive).

Question: What about the GI50 [32] of the same compound?
Answer: The GI50 was > 100 µM (inactive).

Question: What about the GI50 [33] of the same compound?
Answer: The GI50 was > 100 µM (inactive).

Question: And the GI50 [34]?
Answer: Its GI50 is > 100 µM (inactive).

Question: And the GI50 [35]?
Answer: The GI50 was > 100 µM (inactive).

Question: What about the GI50 [36] of the same compound?
Answer: Its GI50 is > 100 µM (inactive).

Question: And the GI50 [37]?
Answer: The GI50 was 44.1 µM (inactive).

Question: And the GI50 [38]?
Answer: The GI50 was > 100 µM (inactive).

Question: What about the GI50 [41] of the same compound?
Answer: The GI50 was > 100 µM (inactive).

Question: And the GI50 [43]?
Answer: The GI50 was > 100 µM (inactive).

Question: What about the GI50 [44] of the same compound?
Answer: Its GI50 is > 100 µM (inactive).

Question: And the GI50 [45]?
Answer: Its GI50 is > 100 µM (inactive).

Question: What about the GI50 [57] of the same compound?
Answer: The GI50 was > 100 µM (inactive).

Question: What about the GI50 [46] of the same compound?
Answer: Its GI50 is > 100 µM (inactive).

Question: And the GI50 [47]?
Answer: The GI50 was > 100 µM.

Question: And the GI50 [48]?
Answer: Its GI50 is > 100 µM (inactive).

Question: And the GI50 [50]?
Answer: The GI50 was > 100 µM (inactive).

Question: What about the GI50 [58] of the same compound?
Answer: Its GI50 is > 100 µM (inactive).

Question: What about the GI50 [52] of the same compound?
Answer: Its GI50 is > 100 µM (inactive).

Question: And the GI50 [53]?
Answer: Its GI50 is > 100 µM (inactive).

Question: And the GI50 [54]?
Answer: The GI50 was > 100 µM (inactive).

Question: What about the GI50 [56] of the same compound?
Answer: The GI50 was > 100 µM (inactive).
